# ChEMBL document CHEMBL5500426, “Directly Suppressing MYC Function with Novel Alkynyl-Substituted Phenylpyrazole Derivatives that Induce Protein Degradation and Perturb MYC/MAX Interaction” (J Med Chem, 2024)
# Calls of active or inactive are those of the source. The rule behind the calls is not given here.
# Tests used:
# [1] = tested on: PC-3; test: Antiproliferative activity against human PC-3 cells assessed as inhibition of cell growth incubated for 72 hrs by MTT assay; assay type: functional, cell-based; details: PC-3, 72 h
# [2] = tested on: SK-OV-3; test: Antiproliferative activity against human SK-OV-3 cells assessed as inhibition of cell growth incubated for 72 hrs by MTT assay; assay type: functional, cell-based; details: SK-OV-3, 72 h
# [3] = tested on: MV4-11; test: Antiproliferative activity against human MV4-11 cells assessed as inhibition of cell growth incubated for 72 hrs by MTT assay; assay type: functional, cell-based; details: MV4-11, 72 h
# [4] = tested on: A549; test: Antiproliferative activity against human A549 cells assessed as inhibition of cell growth incubated for 72 hrs by MTT assay; assay type: functional, cell-based; details: A549, 72 h
# [5] = tested on: MDA-MB-231; test: Antiproliferative activity against human MDA-MB-231 cells assessed as inhibition of cell growth incubated for 72 hrs by MTT assay; assay type: functional, cell-based; details: MDA-MB-231, 72 h
# [6] = target: Myc proto-oncogene protein (Homo sapiens) (UniProt P01106); test: Inhibition of MYC in human PC-3 cells assessed as downregulation of MYC expression incubated for 24 hrs by Western blotting analysis; assay type: cell-based
# Sequence of Myc proto-oncogene protein (Homo sapiens) (P01106 whole entry): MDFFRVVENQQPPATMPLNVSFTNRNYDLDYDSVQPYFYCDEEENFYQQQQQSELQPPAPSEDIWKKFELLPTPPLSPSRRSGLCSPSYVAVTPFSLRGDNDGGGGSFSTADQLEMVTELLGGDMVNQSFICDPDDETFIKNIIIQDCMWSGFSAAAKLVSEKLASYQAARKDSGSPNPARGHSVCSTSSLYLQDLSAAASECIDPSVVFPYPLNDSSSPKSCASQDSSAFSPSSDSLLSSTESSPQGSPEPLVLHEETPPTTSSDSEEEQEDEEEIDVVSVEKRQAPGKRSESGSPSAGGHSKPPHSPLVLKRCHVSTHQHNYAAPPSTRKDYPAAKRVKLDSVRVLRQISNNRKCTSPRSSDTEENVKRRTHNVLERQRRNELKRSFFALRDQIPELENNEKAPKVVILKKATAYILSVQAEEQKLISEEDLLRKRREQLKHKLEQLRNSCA
# [7] = Cytotoxicity against human HUVEC cells assessed as inhibition of cell growth incubated for 72 hrs by MTT assay; assay type: toxicity, cell-based
# [8] = tested on: Myc-CaP; test: Antiproliferative activity against mouse Myc-CaP cells assessed as inhibition of cell growth incubated for 72 hrs by MTT assay; assay type: functional, cell-based
# [9] = target: Myc proto-oncogene protein (Homo sapiens) (UniProt P01106); test: Inhibition of MYC in human PC-3 cells assessed as downregulation of MYC expression at 1 uM incubated for 24 hrs by Western blotting analysis relative to control; assay type: cell-based
# [10] = tested on: SGC-7901; test: Antiproliferative activity against human SGC-7901 cells assessed as inhibition of cell growth incubated for 72 hrs by MTT assay; assay type: functional, cell-based; details: SGC-7901, 72 h
# [11] = tested on: HCT-116; test: Antiproliferative activity against human HCT-116 cells assessed as inhibition of cell growth incubated for 72 hrs by MTT assay; assay type: functional, cell-based; details: HCT-116, 72 h
# [12] = tested on: SK-N-BE(2); test: Antiproliferative activity against human SK-N-BE(2) cells assessed as inhibition of cell growth incubated for 72 hrs by MTT assay; assay type: functional, cell-based; details: SKNBE2, 72 h
# [13] = tested on: HL-60; test: Antiproliferative activity against human HL-60 cells assessed as inhibition of cell growth incubated for 72 hrs by MTT assay; assay type: functional, cell-based; details: HL-60, 72 h
# [14] = target: c-Myc/c-Max (Homo sapiens) (UniProt P01106+P61244); test: Inhibition of MYC/MAX protein-protein interaction in human PC-3 cells at 10 uM incubated for 1 hr by Co-immunoprecipitation based immunoblotting analysis; assay type: cell-based
# Sequence of c-Myc/c-Max (Homo sapiens) (P01106 whole entry): as above
# Sequence of c-Myc/c-Max (Homo sapiens) (P61244 2-160 partner limits assumed): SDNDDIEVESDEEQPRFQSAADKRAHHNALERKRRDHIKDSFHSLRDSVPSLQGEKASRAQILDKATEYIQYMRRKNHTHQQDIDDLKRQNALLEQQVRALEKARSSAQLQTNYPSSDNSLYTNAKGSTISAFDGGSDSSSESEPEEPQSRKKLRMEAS
# [15] = Cytotoxicity against human GES1 cells assessed as inhibition of cell growth incubated for 72 hrs by MTT assay; assay type: toxicity, cell-based
# [16] = tested on: HepG2; test: Antiproliferative activity against human HepG2 cells assessed as inhibition of cell growth incubated for 72 hrs by MTT assay; assay type: functional, cell-based; details: HepG2, 72 h
# [17] = tested on: MDA-MB-468; test: Antiproliferative activity against human MDA-MB-468 cells assessed as inhibition of cell growth incubated for 72 hrs by MTT assay; assay type: functional, cell-based; details: MDA-MB-468, 72 h
SMILES,IC50 [1],other results
Oc1c(-c2cc(C(F)(F)F)n[nH]2)ccc(OCc2ccc(Cl)cc2)c1C#CCCN1CCOCC1,8.51 µM,
CN(C)CC#Cc1c(OCc2ccc(Cl)cc2)ccc(-c2cc(C(F)(F)F)n[nH]2)c1O,> 100 µM,
OCCCC#Cc1c(OCc2ccc(Cl)cc2)ccc(-c2cc(C(F)(F)F)n[nH]2)c1O,12.9 µM,
CN1CCN(CC#Cc2ccc(-c3cc(C(F)(F)F)nn3C)c(O)c2-c2ccc(Cl)c(C(F)(F)F)c2)CC1,20.2 µM,
Oc1c(-c2cc(C(F)(F)F)n[nH]2)ccc(OCc2ccc(Cl)cc2)c1C#CCN1CCC(N2CCOCC2)CC1,> 100 µM,
Oc1c(-c2cc(C(F)(F)F)n[nH]2)ccc(C#CCN2CCOCC2)c1-c1ccc(Cl)c(C(F)(F)F)c1,2.02 µM,
Oc1c(-c2cc(C(F)(F)F)n[nH]2)ccc(OCc2ccc(Cl)cc2)c1C#CCN1CCCCC1,44 µM,
Cn1nc(C(F)(F)F)cc1-c1ccc(OCc2ccc(Cl)cc2)c(C#CCN2CCOCC2)c1O,> 100 µM,
CC(C)(O)CCC#Cc1ccc(-c2cc(C(F)(F)F)n[nH]2)c(O)c1-c1ccc(Cl)c(C(F)(F)F)c1,2.36 µM,
CC(C)(O)CCC#Cc1c(OCc2ccc(Cl)cc2)ccc(-c2cc(C(F)(F)F)n[nH]2)c1O,6.7 µM,
Cn1nc(C(F)(F)F)cc1-c1ccc(OCc2ccc(Cl)cc2)c(-c2ccc(Cl)c(C(F)(F)F)c2)c1O,6.62 µM,IC50 [2]: 1.74 µM; IC50 [3]: 1.53 µM; IC50 [4]: 4.31 µM; IC50 [5]: 5.84 µM; inhibition [6]: Dose-Dependent Effect; IC50 at 72 h [7]: > 100 µM; IC50 [8]: 4.16 µM; inhibition [9]: 31%; IC50 [10]: 4.37 µM; IC50 [11]: 1.37 µM; IC50 [12]: 1.74 µM; IC50 [13]: 3.78 µM; inhibition [14]: Active; IC50 at 72 h [15]: > 100 µM; IC50 [16]: 1.57 µM; IC50 [17]: 7.08 µM
CN1CCN(CC#Cc2c(OCc3ccc(Cl)cc3)ccc(-c3cc(C(F)(F)F)n[nH]3)c2O)CC1,6.89 µM,
Oc1c(-c2cc(C(F)(F)F)n[nH]2)ccc(OCc2ccc(Cl)cc2)c1C#CCCCN1CCCCC1,4.42 µM,
CN1CCN(CC#Cc2ccc(-c3cc(C(F)(F)F)n[nH]3)c(O)c2-c2ccc(Cl)c(C(F)(F)F)c2)CC1,4.13 µM,
CN1CCN(CC#Cc2c(OCc3ccc(Cl)cc3)ccc(-c3cc(C(F)(F)F)nn3C)c2O)CC1,16.6 µM,
Oc1c(-c2cc(C(F)(F)F)n[nH]2)ccc(C#CCCN2CCCCC2)c1-c1ccc(Cl)c(C(F)(F)F)c1,3.38 µM,
Cn1nc(C(F)(F)F)cc1-c1ccc(C#CCN2CCOCC2)c(-c2ccc(Cl)c(C(F)(F)F)c2)c1O,58.5 µM,
Oc1c(-c2cc(C(F)(F)F)n[nH]2)ccc(C#CCCN2CCN(C3COC3)CC2)c1-c1ccc(Cl)c(C(F)(F)F)c1,1.89 µM,
Oc1c(-c2cc(C(F)(F)F)n[nH]2)ccc(OCc2ccc(Cl)cc2)c1C#CCN1CCN(C2COC2)CC1,8.24 µM,
Oc1c(-c2cc(C(F)(F)F)n[nH]2)ccc(OCc2ccc(Cl)cc2)c1C#CCCN1CC2(COC2)C1,4.88 µM,
Oc1c(-c2cc(C(F)(F)F)n[nH]2)ccc(OCc2ccc(Cl)cc2)c1C#CCN1CC2(COC2)C1,23.6 µM,
Cn1nc(C(F)(F)F)cc1-c1ccc(C#CCCC(C)(C)O)c(-c2ccc(Cl)c(C(F)(F)F)c2)c1O,30.1 µM,

# Further lines, with some results ahead:
IC50 [1],SMILES,other results
31 µM,OCCC#Cc1c(OCc2ccc(Cl)cc2)ccc(-c2cc(C(F)(F)F)n[nH]2)c1O,
8.43 µM,CN1CCN(CCCC#Cc2c(OCc3ccc(Cl)cc3)ccc(-c3cc(C(F)(F)F)n[nH]3)c2O)CC1,
> 100 µM,Cn1nc(C(F)(F)F)cc1-c1ccc(OCc2ccc(Cl)cc2)c(C#CCCCO)c1O,
73.2 µM,Oc1c(-c2cc(C(F)(F)F)n[nH]2)ccc(OCc2ccc(Cl)cc2)c1C#CCN1CCOCC1,
3.07 µM,CN1CCN(CCC#Cc2ccc(-c3cc(C(F)(F)F)n[nH]3)c(O)c2-c2ccc(Cl)c(C(F)(F)F)c2)CC1,
15.3 µM,CN1CCN(CCC#Cc2c(OCc3ccc(Cl)cc3)ccc(-c3cc(C(F)(F)F)n[nH]3)c2O)CC1,
3.65 µM,Oc1c(-c2cc(C(F)(F)F)n[nH]2)ccc(OCc2ccc(Cl)cc2)c1C#CCCN1CCCCC1,
9.89 µM,Oc1c(-c2cc(C(F)(F)F)n[nH]2)ccc(OCc2ccc(Cl)cc2)c1C#CCCCN1CCOCC1,
> 100 µM,Oc1c(-c2cc(C(F)(F)F)n[nH]2)ccc(OCc2ccc(Cl)cc2)c1C#CCN1CCCC1,
2.8 µM,Oc1c(-c2cc(C(F)(F)F)n[nH]2)ccc(C#CCCN2CC3(COC3)C2)c1-c1ccc(Cl)c(C(F)(F)F)c1,
6.07 µM,Oc1c(-c2cc(C(F)(F)F)n[nH]2)ccc(OCc2ccc(Cl)cc2)c1C#CCCN1CCC(O)CC1,
33.4 µM,Oc1c(-c2cc(C(F)(F)F)n[nH]2)ccc(OCc2ccc(Cl)cc2)c1C#CCN1CCC(O)CC1,
65.5 µM,Cn1nc(C(F)(F)F)cc1-c1ccc(C#CCCCO)c(-c2ccc(Cl)c(C(F)(F)F)c2)c1O,
